Key:
[1] = Pharmacokinetic test in mice; type: in vivo; settings: BALB/c mice; for AUC / Cmax / half-life: mouse, plasma; for half-life: read-out: t½ (converted)
Procedure: In this example, the pharmacokinetic behavior of the compounds after intravenous injection (IV) and intragastric (PO) administration in BALB/c mice was tested.
(§1) On the day of administration, mice were weighed for actual body weight and the administration volume was calculated. Each compound was tested in two groups with 9 mice in each group; one group was subjected to administration by single intravenous injection, and the other group of mice was subjected to single intragastric administration. Whole blood samples were collected via the orbit at prescribed time points (0.25 h, 0.5 h, 1 h, 2 h, 4 h, 8 h, and 24 h after administration). After blood sample collection, the samples were immediately transferred to labeled commercial sample tubes containing K2-EDTA (0.85-1.15 mg), followed by centrifugation (3200×g, 4° C., 10 min) and plasma collection. The plasma was transferred to a pre-cooled centrifuge tube, frozen in dry ice, and then stored in an ultra-low temperature freezer at −60° C. or lower until the LC-MS/MS analysis.
(§2) Plasma concentrations were determined by the LC-MS/MS method. Plasma drug concentration data for the compounds were processed using a non-compartmental model in the WinNonlin Version 6.3 (Pharsight, Mountain View, CA) pharmacokinetic software. The relevant pharmacokinetic parameters were calculated by a linear-log trapezoidal method.

OVCAR3 cells = assay: Detection of OVCAR3 cell proliferation activity by CTG method; type: cell-based; settings: CellTiter-Glo, 7 days
Procedure, shortened: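 OVCAR3 cells (2000/well) were exposed for 7 days to compound at 10 μM to 0.026 nM, 5-fold steps, in duplicate. Viability was read as CellTiter-Glo luminescence. A plate read on the day of compound addition served as the Max value for IC50 derivation.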

KIF18A = KIF18A (Homo sapiens (Human), UniProt Q8NI77); assay: KIF18A enzymatic activity inhibition, ADP-Glo kit; type: biochemical; settings: 4 nM KIF18A, 30 μM ATP
Chain of KIF18A (Q8NI77 1-467): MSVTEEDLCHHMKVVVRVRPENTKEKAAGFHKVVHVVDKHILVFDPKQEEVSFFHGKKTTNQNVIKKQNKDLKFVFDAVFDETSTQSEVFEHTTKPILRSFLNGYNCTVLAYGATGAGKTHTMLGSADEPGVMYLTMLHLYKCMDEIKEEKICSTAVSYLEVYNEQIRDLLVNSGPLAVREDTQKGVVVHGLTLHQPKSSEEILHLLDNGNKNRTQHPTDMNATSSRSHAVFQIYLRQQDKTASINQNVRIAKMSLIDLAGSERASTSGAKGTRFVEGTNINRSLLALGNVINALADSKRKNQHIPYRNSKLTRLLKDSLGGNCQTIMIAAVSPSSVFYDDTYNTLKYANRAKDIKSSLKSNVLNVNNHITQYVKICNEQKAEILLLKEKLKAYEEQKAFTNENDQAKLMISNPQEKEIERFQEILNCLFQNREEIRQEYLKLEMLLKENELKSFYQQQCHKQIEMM
Procedure, shortened: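 KIF18A (1467) at 4 nM was preincubated with compound for 20 min at 37 °C in 15 mM Tris pH 7.5, 10 mM MgCl2, 0.01% Pluronic F-68. The reaction was started with 30 μM ATP and ran 15 min at room temperature.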

[2] = Pharmacokinetic test in rats; type: in vivo; settings: SD rats; for AUC / Cmax / half-life: rat, plasma; for half-life: read-out: t½ (converted)
Procedure: In this example, the pharmacokinetic behavior of the compounds after intravenous injection (IV) and intragastric (PO) administration in SD rats was tested.
as §1, with “rats” for “mice”, “3 rats” for “9 mice”, “group” for “group of mice”, “jugular vein” for “orbit”
as §2

[3] = target: cytochrome oxidase P450 3A4 (Homo sapiens (Human), UniProt P08684); assay: Inhibition of cytochrome oxidase P450 3A4 (Midazolam); type: in vitro ADME; settings: liver microsomes, CYP3A4, Midazolam
Chain of cytochrome oxidase P450 3A4 (P08684 whole entry): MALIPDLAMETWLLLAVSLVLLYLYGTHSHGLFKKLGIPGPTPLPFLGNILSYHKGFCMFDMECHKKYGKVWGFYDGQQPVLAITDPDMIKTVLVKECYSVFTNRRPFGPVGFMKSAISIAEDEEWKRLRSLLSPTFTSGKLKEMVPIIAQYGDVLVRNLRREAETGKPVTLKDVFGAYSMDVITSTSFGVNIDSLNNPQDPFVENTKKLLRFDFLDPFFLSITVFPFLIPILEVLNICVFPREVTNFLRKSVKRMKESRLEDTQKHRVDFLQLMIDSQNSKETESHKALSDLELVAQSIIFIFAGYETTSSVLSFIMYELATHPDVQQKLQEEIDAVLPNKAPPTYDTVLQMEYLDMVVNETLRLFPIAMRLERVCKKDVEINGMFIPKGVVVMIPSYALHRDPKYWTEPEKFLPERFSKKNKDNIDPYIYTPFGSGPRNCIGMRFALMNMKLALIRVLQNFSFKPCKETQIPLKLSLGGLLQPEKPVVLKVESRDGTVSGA

[4] = target: cytochrome oxidase P450 2D6 (Homo sapiens (Human), UniProt P10635); assay: Inhibition of cytochrome oxidase P450 2D6; type: in vitro ADME; settings: liver microsomes, CYP2D6
Chain of cytochrome oxidase P450 2D6 (P10635 whole entry): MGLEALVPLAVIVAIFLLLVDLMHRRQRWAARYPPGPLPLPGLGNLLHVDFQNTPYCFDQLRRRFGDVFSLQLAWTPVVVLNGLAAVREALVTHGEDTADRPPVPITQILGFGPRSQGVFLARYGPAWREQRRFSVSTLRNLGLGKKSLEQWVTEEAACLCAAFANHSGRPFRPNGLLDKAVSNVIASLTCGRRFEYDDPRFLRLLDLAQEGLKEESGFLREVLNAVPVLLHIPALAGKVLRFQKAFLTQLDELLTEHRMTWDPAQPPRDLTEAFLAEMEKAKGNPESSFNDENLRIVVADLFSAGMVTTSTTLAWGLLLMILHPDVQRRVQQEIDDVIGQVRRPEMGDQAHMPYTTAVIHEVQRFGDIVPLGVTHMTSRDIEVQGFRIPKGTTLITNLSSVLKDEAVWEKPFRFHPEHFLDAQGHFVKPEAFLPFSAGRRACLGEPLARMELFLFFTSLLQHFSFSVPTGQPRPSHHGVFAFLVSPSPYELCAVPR

Row | SMILES | F ([1]; PO @5mpk) [%] | AUC ([1]; 5 mg/kg, PO @5mpk) [µM·h] | Cmax ([1]; 5 mg/kg, PO @5mpk) [nM] | half-life ([1]; 5 mg/kg, PO @5mpk) [h] | IC50 (OVCAR3 cells; Homo sapiens, OVCAR-3, 168 h) [nM] | IC50 (KIF18A) [nM] | F ([2]; PO @5mpk) [%] | AUC ([2]; 5 mg/kg, PO @5mpk) [µM·h] | Cmax ([2]; 5 mg/kg, PO @5mpk) [nM] | half-life ([2]; 5 mg/kg, PO @5mpk) [h] | IC50 [3] [nM] | IC50 [4] [nM] | other results
1 | Cc1cc(NC(=O)c2ccc(NS(=O)(=O)CCO)cc2N2CC3CCC(C3)C2)nc(N2CCC(F)(F)CC2)n1 [Compound 3] | 87 | 74.8 | 4250 | 44.5 | 85 | 19.8 | 57 | 16.2 | 1330 | 7 | – | – | –
2 | O=C(Nc1cc2ccccc2c(N2CCC(F)(F)CC2)n1)c1ccc(NS(=O)(=O)CCO)cc1N1CCC2(CC1)CC2 [Compound 6] | 44 | 13.5 | 1550 | 4.7 | 118 | 95.6 | 23 | 8.92 | 509 | 55.8 | > 10000 | > 10000 | –
3 | O=C(Nc1cn2ccnc2c(N2CCC(F)(F)CC2)n1)c1ccc(NS(=O)(=O)CCO)cc1N1CCC2(CC1)CC2 [Compound 8] | 97 | 6.87 | 1610 | 1.2 | 5.8 | 21.3 | 16 | 1.56 | 303 | 5.9 | > 10000 | > 10000 | –
4 | CS(=O)(=O)Nc1ccc(C(=O)Nc2cn3ccnc3c(N3CCC(F)(F)CC3)n2)c(N2CCC3(CC2)CC3)c1 [Compound 10] | – | – | – | – | 16 | 25.7 | – | – | – | – | – | – | –
5 | O=C(Nc1cc2c(c(N3CCC(F)(F)CC3)n1)COC2)c1ccc(NS(=O)(=O)CCO)cc1N1CCC2(CC1)CC2 [Compound 14] | – | – | – | – | 5.6 | 28.7 | 25 | 1.92 | 351 | 6.4 | – | – | –
6 | O=C(Nc1cc2ccsc2c(N2CCC(F)(F)CC2)n1)c1ccc(NS(=O)(=O)CCO)cc1N1CCC2(CC1)CC2 [Compound 15] | 79 | 17.8 | 1770 | 3.4 | 24 | 126 | 27 | 9.67 | 540 | 22.8 | – | – | –
7 | O=C(Nc1cn2ccnc2c(N2CCC(F)(F)CC2)n1)c1ccc(NS(=O)(=O)CCO)cc1N1CC2CCC(C2)C1 [Compound 17] | 116 | 13.3 | 2690 | 3.3 | 6.3 | 16.4 | 39 | 3.2 | 582 | 4.9 | – | – | –
8 | CS(=O)(=O)Nc1ccc(C(=O)Nc2cn3ccnc3c(N3CCC(F)(F)CC3)n2)c(N2CC3CCC(C3)C2)c1 [Compound 19] | 101 | 58.3 | 3920 | 14.9 | – | – | 63 | 20.5 | 1240 | 12.2 | > 10000 | > 10000 | F ([1]; PO @30mpk): 92%; AUC ([1]; 30 mg/kg, PO @30mpk): 320 µM·h; Cmax ([1]; 30 mg/kg, PO @30mpk): 15300 nM; half-life ([1]; 30 mg/kg, PO @30mpk): 16.5 h
9 | O=C(Nc1cc2cccnc2c(N2CCC(F)(F)CC2)n1)c1ccc(NS(=O)(=O)CCO)cc1N1CCC2(CC1)CC2 [Compound 21] | 107 | 60.9 | 4170 | 4 | – | – | 24.7 | 33.9 | 2090 | 10.6 | > 10000 | > 10000 | F ([1]; PO @30mpk): 61%; AUC ([1]; 30 mg/kg, PO @30mpk): 207 µM·h; Cmax ([1]; 30 mg/kg, PO @30mpk): 15300 nM; half-life ([1]; 30 mg/kg, PO @30mpk): 5.4 h
10 | O=C(Nc1cc2cc[nH]c2c(N2CCC(F)(F)CC2)n1)c1ccc(NS(=O)(=O)CCO)cc1N1CCC2(CC1)CC2 [Compound 22] | – | – | – | – | 11.2 | 26.4 | – | – | – | – | – | – | F ([1]; PO @30mpk): 218%; AUC ([1]; 30 mg/kg, PO @30mpk): 79.8 µM·h; Cmax ([1]; 30 mg/kg, PO @30mpk): 14600 nM; half-life ([1]; 30 mg/kg, PO @30mpk): 10 h
11 | O=C(Nc1cn2ncnc2c(N2CCC(F)(F)CC2)n1)c1ccc(NS(=O)(=O)CCO)cc1N1CCC2(CC1)CC2 [Compound 23] | – | – | – | – | 6.4 | 3.6 | – | – | – | – | – | – | –
12 | O=C(Nc1cn2cnnc2c(N2CCC(F)(F)CC2)n1)c1ccc(NS(=O)(=O)CCO)cc1N1CCC2(CC1)CC2 [Compound 24] | – | – | – | – | – | 3.7 | – | – | – | – | – | – | IC50 (OVCAR3 cells): 17.8 nM
13 | O=C(Nc1cn2c(F)cnc2c(N2CCC(F)(F)CC2)n1)c1ccc(NS(=O)(=O)CCO)cc1N1CCC2(CC1)CC2 [Compound 34] | 257 | 70.1 | 6390 | 3.7 | – | – | – | – | – | – | > 10000 | > 10000 | F ([1]; PO @30mpk): 147%; AUC ([1]; 30 mg/kg, PO @30mpk): 220 µM·h; Cmax ([1]; 30 mg/kg, PO @30mpk): 15200 nM; half-life ([1]; 30 mg/kg, PO @30mpk): 9.6 h; F ([2]; PO @30mpk): 25.7%; AUC ([2]; 30 mg/kg, PO @30mpk): 62.5 µM·h; Cmax ([2]; 30 mg/kg, PO @30mpk): 3430 nM; half-life ([2]; 30 mg/kg, PO @30mpk): 66.3 h
14 | CS(=O)(=O)Nc1ccc(C(=O)Nc2cc3cc[nH]c3c(N3CCC(F)(F)CC3)n2)c(N2CCC3(CC2)CC3)c1 [Compound 47] | – | – | – | – | – | – | – | – | – | – | 240 | 2240 | –
